# Laboratory results reported in PubChem BioAssay AID2060894 (Molecular Pharmacology Branch, DTP, NCI, 2025).
# Tested on: K12877-001-R-J1-PDC complex spheroid viability
# Test: Anticancer human tumor K12877-001-R-J1-PDC patient-derived lung adenocarcinoma cell line growth inhibition [RAS]
# Conditions: for viability, T/C: stronger effect = lower value
# Procedure, shortened: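 Tumour cells grown as complex spheroids with HUVEC endothelial cells and mesenchymal stem cells, treated with RAS pathway inhibitor combinations. Each agent spans half-log steps from near clinical Cmax, or 10 microM where Cmax is unknown.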
# [1] = curve of first compound, second compound 0.000949 µM
# [2] = curve of first compound, second compound 0.003 µM
# [3] = curve of first compound, second compound 0.00949 µM
# [4] = curve of first compound, second compound 0.03 µM
# [5] = curve of first compound, second compound 0.0949 µM
# [6] = curve of first compound, second compound 0.3 µM
# [7] = second compound 0.000949 µM, first compound 0.00316 µM
# [8] = second compound 0.000949 µM, first compound 0.01 µM
# [9] = second compound 0.000949 µM, first compound 0.0316 µM
# [10] = second compound 0.000949 µM, first compound 0.1 µM
# [11] = second compound 0.000949 µM, first compound 0.316 µM
# [12] = second compound 0.000949 µM, first compound 1 µM
# [13] = second compound 0.003 µM, first compound 0.00316 µM
# [14] = second compound 0.003 µM, first compound 0.01 µM
# [15] = second compound 0.003 µM, first compound 0.0316 µM
# [16] = second compound 0.003 µM, first compound 0.1 µM
# [17] = second compound 0.003 µM, first compound 0.316 µM
# [18] = second compound 0.003 µM, first compound 1 µM
# [19] = second compound 0.00949 µM, first compound 0.00316 µM
# [20] = second compound 0.00949 µM, first compound 0.01 µM
# [21] = second compound 0.00949 µM, first compound 0.0316 µM
# [22] = second compound 0.00949 µM, first compound 0.1 µM
# [23] = second compound 0.00949 µM, first compound 0.316 µM
# [24] = second compound 0.00949 µM, first compound 1 µM
# [25] = second compound 0.03 µM, first compound 0.00316 µM
# [26] = second compound 0.03 µM, first compound 0.01 µM
# [27] = second compound 0.03 µM, first compound 0.0316 µM
# [28] = second compound 0.03 µM, first compound 0.1 µM
# [29] = second compound 0.03 µM, first compound 0.316 µM
# [30] = second compound 0.03 µM, first compound 1 µM
# [31] = second compound 0.0949 µM, first compound 0.00316 µM
# [32] = second compound 0.0949 µM, first compound 0.01 µM
# [33] = second compound 0.0949 µM, first compound 0.0316 µM
# [34] = second compound 0.0949 µM, first compound 0.1 µM
# [35] = second compound 0.0949 µM, first compound 0.316 µM
# [36] = second compound 0.0949 µM, first compound 1 µM
# [37] = second compound 0.3 µM, first compound 0.00316 µM
# [38] = second compound 0.3 µM, first compound 0.01 µM
# [39] = second compound 0.3 µM, first compound 0.0316 µM
# [40] = second compound 0.3 µM, first compound 0.1 µM
# [41] = second compound 0.3 µM, first compound 0.316 µM
# [42] = second compound 0.3 µM, first compound 1 µM
# 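Also: spheroids exposed to agents for one week before readout.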
compound,measurement,setting,value
Nc1ccn(C2OC(CO)C(O)C2(F)F)c(=O)n1 (stereo unspecified) + CCn1c(-c2cc(N3CCN(C)CC3)cnc2C(C)OC)c2c3cc(ccc31)-c1csc(n1)CC(NC(=O)C1CC1C)C(=O)N1CCCC(N1)C(=O)OCC(C)(C)C2,IC50,[1],0.0139 µM
same,IC50,[2],0.0134 µM
same,IC50,[3],0.0116 µM
same,IC50,[4],0.0175 µM
same,IC50,[5],0.0168 µM
same,IC50,[6],0.0174 µM
same,"viability, T/C",[7],76.3%
same,"viability, T/C",[8],66.7%
same,"viability, T/C",[9],8.22%
same,"viability, T/C",[10],4.35%
same,"viability, T/C",[11],4.92%
same,"viability, T/C",[12],5.37%
same,"viability, T/C",[13],62.2%
same,"viability, T/C",[14],64%
same,"viability, T/C",[15],10.9%
same,"viability, T/C",[16],4.55%
same,"viability, T/C",[17],4.11%
same,"viability, T/C",[18],4.17%
same,"viability, T/C",[19],59.7%
same,"viability, T/C",[20],55.8%
same,"viability, T/C",[21],9.86%
same,"viability, T/C",[22],3.95%
same,"viability, T/C",[23],4.84%
same,"viability, T/C",[24],4.74%
same,"viability, T/C",[25],93.2%
same,"viability, T/C",[26],86.8%
same,"viability, T/C",[27],10.9%
same,"viability, T/C",[28],4.44%
same,"viability, T/C",[29],4.77%
same,"viability, T/C",[30],3.54%
same,"viability, T/C",[31],103%
same,"viability, T/C",[32],80.9%
same,"viability, T/C",[33],12.4%
same,"viability, T/C",[34],3.68%
same,"viability, T/C",[35],3.46%
same,"viability, T/C",[36],4.36%
same,"viability, T/C",[37],84.6%
same,"viability, T/C",[38],80.6%
same,"viability, T/C",[39],17%
same,"viability, T/C",[40],2.67%
same,"viability, T/C",[41],3.61%
same,"viability, T/C",[42],2.74%
Nc1ccn(C2OC(CO)C(O)C2(F)F)c(=O)n1 (stereo unspecified),"viability, T/C",compound 0.00316 µM,105% [middle of 4 runs]
same,"viability, T/C",compound 0.01 µM,90.8% [middle of 4 runs]
same,"viability, T/C",compound 0.0316 µM,7.36% [middle of 4 runs]
same,"viability, T/C",compound 0.1 µM,5.6% [middle of 4 runs]
same,"viability, T/C",compound 0.316 µM,5.52% [middle of 4 runs]
same,"viability, T/C",compound 1 µM,5.95% [middle of 4 runs]
same,IC50,curve of compound,17.6 nM [middle of 4 runs]
CCn1c(-c2cc(N3CCN(C)CC3)cnc2C(C)OC)c2c3cc(ccc31)-c1csc(n1)CC(NC(=O)C1CC1C)C(=O)N1CCCC(N1)C(=O)OCC(C)(C)C2 (stereo unspecified),"viability, T/C",compound 0.000949 µM,81.8% [middle of 8 runs]
same,"viability, T/C",compound 0.003 µM,72.1% [middle of 8 runs]
same,"viability, T/C",compound 0.00949 µM,67.8% [middle of 8 runs]
same,"viability, T/C",compound 0.0949 µM,107% [middle of 8 runs]
same,"viability, T/C",compound 0.3 µM,97.1% [middle of 7 runs]
same,IC50,"compound alone, run of 08/26/2024",> 0.3 µM
Nc1ccn(C2OC(CO)C(O)C2(F)F)c(=O)n1 (stereo unspecified) + CCn1c(-c2cccnc2C(C)OC)c2c3cc(ccc31)N1CCOC(CC(NC(=O)C(C(C)C)N(C)C(=O)C3(F)CCN(C(=O)C#CC(C)(C)N(C)C)CC3)C(=O)N3CCCC(N3)C(=O)OCC(C)(C)C2)C1,IC50,[1],0.0145 µM
same,IC50,[2],0.0132 µM
same,IC50,[3],0.0127 µM
same,IC50,[4],0.0124 µM
same,IC50,[5],0.0105 µM
same,IC50,[6],0.00589 µM
same,"viability, T/C",[7],83.5%
same,"viability, T/C",[8],71.9%
same,"viability, T/C",[9],4.44%
same,"viability, T/C",[10],3.87%
same,"viability, T/C",[11],3.37%
same,"viability, T/C",[12],4.46%
same,"viability, T/C",[13],82.3%
same,"viability, T/C",[14],64.6%
same,"viability, T/C",[15],4.22%
same,"viability, T/C",[16],3.94%
same,"viability, T/C",[17],5.22%
same,"viability, T/C",[18],3.83%
same,"viability, T/C",[19],79.7%
same,"viability, T/C",[20],61.6%
same,"viability, T/C",[21],5.4%
same,"viability, T/C",[22],4.58%
same,"viability, T/C",[23],3.59%
same,"viability, T/C",[24],3.51%
same,"viability, T/C",[25],82.2%
same,"viability, T/C",[26],60.4%
same,"viability, T/C",[27],3.17%
same,"viability, T/C",[28],4.94%
same,"viability, T/C",[29],4.16%
same,"viability, T/C",[30],3.02%
same,"viability, T/C",[31],77.2%
same,"viability, T/C",[32],52%
same,"viability, T/C",[33],5.2%
same,"viability, T/C",[34],3.34%
same,"viability, T/C",[35],2.8%
same,"viability, T/C",[36],3.38%
same,"viability, T/C",[37],71.6%
same,"viability, T/C",[38],31.5%
same,"viability, T/C",[39],3.46%
same,"viability, T/C",[40],2.66%
same,"viability, T/C",[41],3.3%
same,"viability, T/C",[42],3.43%
C=CC(=O)Nc1cc(Nc2nccc(-c3cn(C)c4ccccc34)n2)c(OC)cc1N(C)CCN(C)C,"viability, T/C",compound 0.00316 µM,108% [middle of 4 runs]
same,"viability, T/C",compound 0.01 µM,106% [middle of 4 runs]
same,"viability, T/C",compound 0.0316 µM,106% [middle of 4 runs]
same,"viability, T/C",compound 0.1 µM,101% [middle of 4 runs]
same,"viability, T/C",compound 0.316 µM,103% [middle of 4 runs]
same,"viability, T/C",compound 1 µM,90.8% [middle of 4 runs]
same,IC50,curve of compound,> 1 µM
CCC(CC)c1cc(NC2CCC(N)C2)n2nccc2n1 (stereo unspecified) + C#Cc1c(F)ccc2cc(O)cc(-c3ncc4c(N5CC6CCC(C5)N6)nc(OCC56CCCN5CC(F)C6)nc4c3F)c12,IC50,"curve of first compound, second compound 0.0316 µM",1.54 µM
same,IC50,"curve of first compound, second compound 0.1 µM",1.69 µM
same,IC50,"curve of first compound, second compound 0.316 µM",1.62 µM
same,IC50,"curve of first compound, second compound 1 µM",1.81 µM
same,IC50,"curve of first compound, second compound 3.16 µM",1.58 µM
same,IC50,"curve of first compound, second compound 10 µM",1.45 µM
same,"viability, T/C","second compound 0.0316 µM, first compound 0.0316 µM",89.6%
same,"viability, T/C","second compound 0.0316 µM, first compound 0.1 µM",99.2%
same,"viability, T/C","second compound 0.0316 µM, first compound 0.316 µM",91.7%
same,"viability, T/C","second compound 0.0316 µM, first compound 1 µM",78.1%
same,"viability, T/C","second compound 0.0316 µM, first compound 3.16 µM",2.8%
same,"viability, T/C","second compound 0.0316 µM, first compound 10 µM",1.63%
same,"viability, T/C","second compound 0.1 µM, first compound 0.0316 µM",107%
same,"viability, T/C","second compound 0.1 µM, first compound 0.1 µM",92.8%
same,"viability, T/C","second compound 0.1 µM, first compound 0.316 µM",103%
same,"viability, T/C","second compound 0.1 µM, first compound 1 µM",89.6%
same,"viability, T/C","second compound 0.1 µM, first compound 3.16 µM",2.62%
same,"viability, T/C","second compound 0.1 µM, first compound 10 µM",1.37%
same,"viability, T/C","second compound 0.316 µM, first compound 0.0316 µM",114%
same,"viability, T/C","second compound 0.316 µM, first compound 0.1 µM",111%
same,"viability, T/C","second compound 0.316 µM, first compound 0.316 µM",93.4%
same,"viability, T/C","second compound 0.316 µM, first compound 1 µM",83.6%
same,"viability, T/C","second compound 0.316 µM, first compound 3.16 µM",3.3%
same,"viability, T/C","second compound 0.316 µM, first compound 10 µM",1.42%
same,"viability, T/C","second compound 1 µM, first compound 0.0316 µM",102%
same,"viability, T/C","second compound 1 µM, first compound 0.1 µM",88.8%
same,"viability, T/C","second compound 1 µM, first compound 0.316 µM",105%
same,"viability, T/C","second compound 1 µM, first compound 1 µM",102%
same,"viability, T/C","second compound 1 µM, first compound 3.16 µM",2.94%
same,"viability, T/C","second compound 1 µM, first compound 10 µM",1.04%
same,"viability, T/C","second compound 3.16 µM, first compound 0.0316 µM",109%
same,"viability, T/C","second compound 3.16 µM, first compound 0.1 µM",105%
same,"viability, T/C","second compound 3.16 µM, first compound 0.316 µM",103%
same,"viability, T/C","second compound 3.16 µM, first compound 1 µM",81.1%
same,"viability, T/C","second compound 3.16 µM, first compound 3.16 µM",2.74%
same,"viability, T/C","second compound 3.16 µM, first compound 10 µM",1.05%
same,"viability, T/C","second compound 10 µM, first compound 0.0316 µM",102%
same,"viability, T/C","second compound 10 µM, first compound 0.1 µM",86.2%
same,"viability, T/C","second compound 10 µM, first compound 0.316 µM",93.3%
same,"viability, T/C","second compound 10 µM, first compound 1 µM",72.4%
same,"viability, T/C","second compound 10 µM, first compound 3.16 µM",2.41%
same,"viability, T/C","second compound 10 µM, first compound 10 µM",1.21%
Cc1nc(N2CCC3(CC2)COC(C)C3N)c(CO)nc1Sc1ccnc(N)c1Cl (stereo unspecified),"viability, T/C",compound 0.1 µM,92.8% [middle of 4 runs]
same,"viability, T/C",compound 0.316 µM,92.2% [middle of 4 runs]
same,"viability, T/C",compound 1 µM,93.8% [middle of 4 runs]
same,"viability, T/C",compound 10 µM,79.5% [middle of 4 runs]
same,IC50,curve of compound,> 10 µM
